Assay results as given in the Kinase Knowledgebase extract (Sharma et al. 2016).
pIC50: −log10 of the molar value.

Target: MAPK14 (UniProt Q16539)
Assay: Inhibition of MAPK14 Kinase Activity

MAPK14, sequence (Q16539 whole entry, looked up): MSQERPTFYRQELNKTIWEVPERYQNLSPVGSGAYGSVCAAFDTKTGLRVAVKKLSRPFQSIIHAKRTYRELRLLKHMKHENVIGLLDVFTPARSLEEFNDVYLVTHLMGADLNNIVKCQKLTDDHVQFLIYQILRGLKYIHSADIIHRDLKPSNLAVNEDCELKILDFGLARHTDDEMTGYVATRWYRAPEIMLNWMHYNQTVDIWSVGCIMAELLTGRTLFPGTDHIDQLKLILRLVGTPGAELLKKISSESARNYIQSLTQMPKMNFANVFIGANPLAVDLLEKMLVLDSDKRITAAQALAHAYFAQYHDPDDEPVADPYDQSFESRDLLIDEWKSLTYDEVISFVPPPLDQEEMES

| SMILES | pIC50 |
| --- | --- |
| CC(C)S(=O)(=O)n1c(N)nc2ccc(-c3nc(-c4ccc(N)s4)[nH]c3-c3ccccc3)cc21 | ≥ 5.30 |
| CCN1CCC(c2nc(-c3ccc4nc(N)n(S(=O)(=O)C(C)C)c4c3)c(-c3ccccc3)[nH]2)CC1 | ≥ 5.30 |
| CCn1cnc(-c2ccc(F)cc2)c1-c1ccc2nc(N)n(S(=O)(=O)C(C)C)c2c1 | ≥ 5.30 |
| CC(C)S(=O)(=O)n1c(N)nc2ccc(-c3nc(-c4c(F)cccc4C(F)(F)F)[nH]c3-c3ccccc3)cc21 | ≥ 5.30 |
| Cc1ccc(-c2nc(-c3ccc4nc(N)n(S(=O)(=O)C(C)C)c4c3)c(-c3ccccc3)[nH]2)cc1 | ≥ 5.30 |
| CC(C)S(=O)(=O)n1c(N)nc2ccc(-c3c(-c4ccc(F)cc4)ncn3C3CCCCC3)cc21 | ≥ 5.30 |
| CC(C)S(=O)(=O)n1c(N)nc2ccc(-c3nc(C(C)(C)C)[nH]c3-c3ccc(F)cc3)cc21 | ≥ 5.30 |
| CC(C)S(=O)(=O)n1c(N)nc2ccc(-c3c(-c4ccc(F)cc4)ncn3[C@H]3CC[C@H](O)CC3)cc21 | ≥ 5.30 |
| CC(C)S(=O)(=O)n1c(N)nc2ccc(-c3c(-c4ccccc4F)nc(C#C[Si](C)(C)C)n3C3CC3)cc21 | ≥ 5.30 |
| CCc1nc(-c2ccc3nc(N)n(S(=O)(=O)C(C)C)c3c2)c(-c2ccc(F)cc2)[nH]1 | ≥ 5.30 |
| CC(C)S(=O)(=O)n1c(N)nc2ccc(-c3nc(-c4ccc(Cl)s4)[nH]c3-c3ccc(F)cc3)cc21 | ≥ 5.30 |
| CC(C)S(=O)(=O)n1c(N)nc2ccc(-c3nc(-c4ccccc4)[nH]c3-c3ccccc3)cc21 | ≥ 5.30 |
| CC(C)S(=O)(=O)n1c(N)nc2ccc(-c3c(-c4ccccc4)ncn3Cc3cccnc3)cc21 | ≥ 5.30 |
| CC(C)S(=O)(=O)n1c(N)nc2ccc(-c3c(-c4ccc(F)cc4)nc4n3CCC4)cc21 | ≥ 5.30 |
| CC(C)S(=O)(=O)n1c(N)nc2ccc(-c3nc(C4CCN(C)CC4)[nH]c3-c3ccccc3)cc21 | ≥ 5.30 |
| Cc1cccc(-c2[nH]c(C)nc2-c2ccc3nc(N)n(S(=O)(=O)C(C)C)c3c2)c1 | ≥ 5.30 |
| CC(C)S(=O)(=O)n1c(N)nc2ccc(-c3nc(-c4c(F)cccc4F)oc3-c3ccccc3)cc21 | ≥ 5.30 |
| CC(C)S(=O)(=O)n1c(N)nc2ccc(-c3c(-c4ccccc4F)nc(-c4ccc(Cl)cc4)n3C3CC3)cc21 | ≥ 5.30 |
| CC(C)S(=O)(=O)n1c(N)nc2ccc(-c3nc(-c4cc(F)ccc4F)[nH]c3-c3ccccc3)cc21 | ≥ 5.30 |
| CC(C)S(=O)(=O)n1c(N)nc2ccc(-c3nc(C4CC4)[nH]c3-c3ccc(F)cc3)cc21 | ≥ 5.30 |
| Cc1ccccc1-c1nc(-c2ccc3nc(N)n(S(=O)(=O)C(C)C)c3c2)c(-c2ccccc2)[nH]1 | ≥ 5.30 |
| CC(C)n1cnc(-c2ccc(F)cc2)c1-c1ccc2nc(N)n(S(=O)(=O)C(C)C)c2c1 | ≥ 5.30 |
| CC(C)S(=O)(=O)n1c(N)nc2ccc(-c3nc(-c4ccc(OCCCN(C)C)c(F)c4)[nH]c3-c3ccccc3)cc21 | ≥ 5.30 |
| CC(C)S(=O)(=O)n1c(N)nc2ccc(-c3c(-c4ccccc4)ncn3C3CCNCC3)cc21 | ≥ 5.30 |
| CC(C)S(=O)(=O)n1c(N)nc2ccc(-c3nc(-c4ccccc4Cl)[nH]c3-c3ccccc3)cc21 | ≥ 5.30 |
| CC(C)S(=O)(=O)n1c(N)nc2ccc(-c3c(-c4ccccc4)ncn3CCCc3ccccc3)cc21 | ≥ 5.30 |
| CC(C)S(=O)(=O)n1c(N)nc2ccc(-c3nc(COCc4ccccc4)[nH]c3-c3ccccc3)cc21 | ≥ 5.30 |
| Cc1ccc(-c2[nH]c(-c3ccc(F)cc3)nc2-c2ccc3nc(N)n(S(=O)(=O)C(C)C)c3c2)cc1 | ≥ 5.30 |

More lines, now with the values ahead:

| pIC50 | SMILES |
| --- | --- |
| ≥ 5.30 | CC(C)S(=O)(=O)n1c(N)nc2ccc(-c3nc(-c4c(F)cc(OCCN5CCCC5)cc4F)[nH]c3-c3ccccc3)cc21 |
| ≥ 5.30 | CCNc1ccc(-c2nc(-c3ccc4nc(N)n(S(=O)(=O)C(C)C)c4c3)c(-c3ccccc3)[nH]2)cc1 |
| ≥ 5.30 | CC(C)S(=O)(=O)n1c(CCN)nc2ccc(-c3nc(-c4c(F)cccc4F)[nH]c3-c3ccccc3)cc21 |
| ≥ 5.30 | CC(C)S(=O)(=O)n1c(N)nc2ccc(-c3c(-c4ccc(F)cc4)ncn3C3CCCC3)cc21 |
| ≥ 5.30 | CC(C)S(=O)(=O)n1c(N)nc2ccc(-c3nc(CNCCN(C)C)[nH]c3-c3ccccc3)cc21 |
| ≥ 5.30 | CC(C)S(=O)(=O)n1c(N)nc2ccc(-c3[nH]n(-c4ccccc4)c(=O)c3-c3ccc(F)cc3)cc21 |
| ≥ 5.30 | CC(C)S(=O)(=O)n1c(N)nc2ccc(-c3nc(-c4ccc(Cl)cc4F)[nH]c3-c3ccccc3)cc21 |
| ≥ 5.30 | CC(C)S(=O)(=O)n1c(N)nc2ccc(-c3c(-c4ccccc4)ncn3[C@@H]3CCCC[C@H]3O)cc21 |
| ≥ 5.30 | CC(C)S(=O)(=O)n1c(N)nc2ccc(-c3nc(C4CCN(Cc5nccn5C)CC4)[nH]c3-c3ccccc3)cc21 |
| ≥ 5.30 | CC(C)S(=O)(=O)n1c(N)nc2ccc(-c3[nH]n(-c4ccc([N+](=O)[O-])cc4)c(=O)c3-c3ccc(F)cc3)cc21 |
| ≥ 5.30 | CC(C)S(=O)(=O)n1c(N)nc2ccc(-c3c(-c4ccccc4)ncn3[C@H]3CC[C@H](O)CC3)cc21 |
| ≥ 5.30 | CC(C)S(=O)(=O)n1c(N)nc2ccc(-c3nc[nH]c3-c3cccc(C(F)(F)F)c3)cc21 |
| ≥ 5.30 | CC(C)S(=O)(=O)n1c(N)nc2ccc(-c3nc(-c4c(F)cccc4Cl)[nH]c3-c3ccccc3)cc21 |
| ≥ 5.30 | CCN(CC)CCOc1cccc(-c2nc(-c3ccc4nc(N)n(S(=O)(=O)C(C)C)c4c3)c(-c3ccccc3)[nH]2)c1 |
| ≥ 5.30 | CC(C)S(=O)(=O)n1c(N)nc2ccc(-c3c(-c4ccccc4F)nc(N=[N+]=[N-])n3C3CC3)cc21 |
| ≥ 5.30 | CC(C)S(=O)(=O)n1c(N)nc2ccc(-c3c(-c4ccccc4F)nc(Br)n3C3CC3)cc21 |
| ≥ 5.30 | CC(C)n1cnc(-c2ccccc2)c1-c1ccc2nc(N)n(S(=O)(=O)C(C)C)c2c1 |
| ≥ 5.30 | COc1ccc(C2N=C3C(C)=CC=CN3C2c2ccc3nc(N)n(S(=O)(=O)C(C)C)c3c2)cc1 (stereo unspecified) |
